Laboratory results: US20050256040A1, “Artificially designed pore-forming proteins with anti-tumor effects” (Buck Institute, priority 2004, published 2005)
Entries after “also recorded” stand apart in the source; their conditions may differ. Like-named read-outs stand apart in the source and are kept apart here.

Experiments:
KS1767 cells [1] = experiment: Matrigel / polymeric fibronectin assay of cell viability; type: cell-based, human; conditions: for effect on KS1767 cell layer: regardless of the presence of matrigel
Description: To determine the mechanisms responsible for selective anti-tumor activity of SGP in vivo, a matrigel assay (to mimic extracellular matrix) was developed. Cell viability was determined by morphology (see Ellerby, et al. (1999) supra.; and Ellerby, et al. (1997) supra.). KS1767 cells were incubated with SGP at 1 mM in the presence or absence of matrigel or polymeric fibronectin (sFN). The fibronectin polymer was produced as previously described (see Pasqualini, et al. (1996) Nature Med. 2, 1197-1203). Briefly, cell culture medium was aspirated from adherent cells. Cells were then coated with matrigel (gently pipetted on each well to completely coat the entire cell layer), or the fibronectin polymer, and incubated at 37° C. for 10 min. SGP was added and the cells were viewed on an inverted microscope (Nikon TE 300). KS1767 cells were also exposed to doxorubicin (20 μg/well) or SGP in the presence or absense of matrigel for 24 h. Cell viability (%) was evaluated after no treatment (medium or matrigel alone), incubation with SGP or doxorubicin. Cell death was evaluated morphologically (see Ellerby, et al. (1999) supra.; and Ellerby, et al. (1997) supra.), and cell viability was compared relative to untreated controls (no matrigel) or absence of SGP.

[2] = test system: H358 lung carcinoma xenografts; experiment: Anti-tumor activity, H358 lung carcinoma xenografts in nude mice; type: in vivo, nude/nude Balb/c mice
Excerpt: (§1) Data are shown for human PC3-derived prostate carcinoma and H358 lung carcinoma. Tumor cells were implanted on the flank at the start of the experiments. Mice were divided in similar groups based on matched tumor volumes at the start of the experiment (open circles).
(§2) MDA-MB-435-, KS1767-, PC-3-, and H358-derived human tumor xenografts were established in 2-month-old female or male (according to the tumor type), nude/nude Balb/c mice (Jackson Labs, Bar Harbor, Me.) by administering […] per mouse in a 200 μl volume of serum-free Dulbecco's modified Eagle's medium into the mammary fat pad or on the flank (see Ellerby, et al. (1999) Nat. Med. 5, 1032-1038). The mice were anesthetized with Avertin as described (see Ellerby, et al. (1999) supra.). SGP was administered directly into the center of the tumor mass at a concentration of 100 μM or 1 mM given slowly in 5 μl increments, for a total volume of 40 μl. Measurements of tumors were taken by caliper under anesthesia and used to calculate tumor volume (see Ellerby, et al. (1999) supra.). Animal experimentation was reviewed and approved by the Institutional Animal Care and Use Committee.

[3] = Cell viability LC50, HPAEC cells; type: cell-based; conditions: human, HPAEC (Human Pulmonary Artery Endothelial Cells)
Description: (§3) To evaluate the effects of SGP on cell membranes multiple human cell lines of different origins were treated (see Table I, which presents a comparison of LC50 data for SGP, SGP-L, and SGP-E on a variety of cultured human cell types).
(§4) Cell viability was determined by morphology (see Ellerby, et al. (1999) Nat. Med. 5, 1032-1038; and Ellerby, et al. (1997) J. Neurosci. 17, 6165-6178). For viability assays, KS1767 cells were incubated with the concentrations of SGP, SGP-L, SGP-E, or control peptides indicated in the figures and in Table I. Briefly, at the given time points, cell culture medium was aspirated from adherent cells. Cells were then gently washed once with PBS at 37° C. A 20-fold dilution of the dye mixture (100 μg/ml acridine orange and 100 μg/ml ethidium bromide) in PBS was then gently pipetted on the cells and viewed on an inverted microscope (Nikon TE 300). […] Percent viability was calculated relative to untreated cells.

[4] = Cell viability LC50, 293 cells; type: cell-based; conditions: human, 293 cells (human kidney cells)
Description: as §3, §4

KS1767 cells [5] = type: cell-based; conditions: for CC50: KS 1767 cells, read-out: LC50 at 30 min; for toxicity to mammalian cultured cells compared with SGP: Table I cell types
Description: All cell lines were obtained commercially. The Kaposi's sarcoma-derived cell line KS1767 and the breast carcinoma cell line MDA-MB-435 have been described previously (see, for example, Herndier, et al. (1994) Aids 8, 575-581; Reisbach, et al. (1982) Anticancer Res. 2, 257-260; and Ellerby, et al. (1999) Nat. Med. 5, 1032-1038) and were cultured in 10% fetal bovine serum/Dulbecco's modified Eagle's medium, containing antibiotics.
as §3, §4

normal skin = experiment: Skin toxicity in nude mice; type: in vivo; conditions: 100 μM, injected sub-cutaneously or intradermally under normal skin
Description: 2-month-old female nude mice (Jackson Labs) were anesthetized with Avertin. 10 μl of 100 μM SGP or PBS was injected into the skin. The injected areas were monitored for 2 weeks.

[6] = Cell viability LC50, CADMEC cells; type: cell-based, human; conditions: human
Description: as §3, §4

[7] = cited from earlier work; for ability to disrupt synthetic membranes: Matsumoto et al. 2001
[8] = Cell viability LC50, HUVEC cells; type: cell-based; conditions: human, HUVEC (Human Umbilical Cord Vascular Endothelial Cells)
Description: as §3, §4

[9] = test system: human MDA-MB-435-derived breast carcinoma xenografts; experiment: Anti-tumor activity, MDA-MB-435 breast carcinoma xenografts in nude mice; type: in vivo, nude/nude Balb/c mice; conditions: for tumor appearance: 4 weekly treatments at 40 μl/week, starting volume 100 mm^3
Description: as §2
In the first set of experiments, tumors were allowed to form after injection of a breast carcinoma cell line (MDA-MD-435) and then treated with local injections of SGP. […] Starting tumor volumes ranged from about 100 mm^3 to large sizes of about 600 mm^3. Tumor-bearing mice were given four weekly treatments of PBS, or 100 μM or 1 mM SGP (40 μl/treatment given in 5 μl increments). After a 4-week period without treatment, the tumor volumes were measured at 8 weeks. The average tumor volume at the end of the experiment in the SGP-treated groups was […] than the average volume seen in the PBS-treated group (FIG. 3A). There was no difference between the average tumor volumes of the 2 SGP treatment groups. Mice treated with SGP remained tumor-free for up to 4 months after tumor implantation, before being euthanized for histological evaluation. These observations indicate that both primary tumor growth (FIG. 4) and metastases were inhibited. […] By successfully treating a large number of mice and testing the effects of SGP on several different tumor xenograft models (including carcinomas, sarcomas, and melanomas), the therapeutic properties of SGP were firmly established. […] It was also evaluated whether SGP produced adverse side effects such as necrosis when injected under normal skin.
MDA-MB-435-derived breast carcinoma and KS1767-derived Kaposi sarcoma xenografts and organs were removed, fixed in Bouin solution, embedded in paraffin for preparation of tissue sections, and stained with hematoxylin and eosin (see Ellerby, et al. (1999) supra.).

[10] = test system: human PC3-derived prostate carcinoma xenografts; experiment: Anti-tumor activity, PC-3 prostate carcinoma xenografts in nude mice; type: in vivo, nude/nude Balb/c mice; conditions: PC-3 tumors, 10 weeks
Excerpt: as §1, §2

[11] = Cell viability LC50, cell line not given in Table I; type: cell-based; conditions: for CC50: cell line cell empty (row under KS 1767), read-out: LC50 at 30 min
Description: as §3, §4

[12] = test system: CADMEC = Cell Applications Dermal Microvessel Endothelial Cells; experiment: Cell viability LC50, CADMEC cells; type: cell-based, human; conditions: read-out: LC50 at 30 min
Description: as §3, §4

## COc1cccc2c1C(=O)c1c(O)c3c(c(O)c1C2=O)C[C@@](O)(C(=O)CO)C[C@@H]3O[C@H]1C[C@H](N)[C@H](O)[C@H](C)O1 [doxorubicin, reference compound]
KS1767 cells [1]; 20 μg/well, 24 h, in the presence of matrigel
  effect on KS1767 cell viability: decreased cell viability
KS1767 cells [1]
  effect on KS1767 cell layer: damaged the cell layer

## CCO [ethanol, reference compound]
KS1767 cells [1]; in the presence of polymeric fibronectin (sFN)
  effect on KS1767 cells: induced massive cell death
KS1767 cells [1]
  effect on KS1767 cell layer: damaged the cell layer

## Ac-AAAAAAWAAAAGPNGLYLKKKLLKKLLKLLGNPGLKLYKKLLKKLLLKLGNPGLLKLYKKLLKKLLKLL-OH [SGP, small globular protein]
[2]; H358 tumors, 9 weeks
  tumor volume compared with PBS-treated tumors: smaller than control PBS-treated tumors
[2]; after 6 weekly treatments at 40 μl/week, FIG. 5C
  tumor appearance: have disappeared
[3]
  CC50 at 30 min: 5 µM
[4]
  CC50 at 30 min: 5 µM
KS1767 cells [5]; 3 μM, 24 h
  effect on KS1767 cells: classic morphological signs of apoptosis
KS1767 cells [5]; 10 μM, within 60 s
  effect on KS1767 cells: extremely rapid non-necrotic, non-apoptotic cell death
KS1767 cells [5]; 10 μM, within 60 min
  effect on KS1767 cells: necrosis
KS1767 cells [5]; below 5 μM, over 24-hour period, confirmed by caspase-3 activation assay
  effect on KS1767 cells: induction of apoptosis
KS1767 cells [5]; cultured cells, tumor derived and normal
  concentration affecting tumor derived cells as well as normal cells: ~3 µM
Normal skin
  skin toxicity: relatively non-toxic to normal skin
[6]
  CC50 at 30 min: 5 µM
[7]; Lee et al. 1997
  pore size (conductance) in synthetic bilayers: 14 pS
[8]
  CC50 at 30 min: 7 µM
[9]; 100 μM
  tumor appearance: flattened and virtually disappeared
[9]; 100 μM, harvested at 8 weeks after treatment initiation
  histopathology of tumor xenografts: widespread cell death; also recorded: extensive apoptosis
[9]; 1 mM
  tumor appearance: flattened and virtually disappeared
[9]; 8 weeks
  difference between average tumor volumes of 100 μM and 1 mM groups: no difference
[9]; SGP-treated mice
  histological analysis of the major organs: no overt pathology
[9]; before being euthanized for histological evaluation
  time mice remained tumor-free after tumor implantation: up to 4 months
[9]; four weekly intratumoral treatments, 100 μM or 1 mM, 40 μl, measured at 8 weeks
  tumor volume compared with PBS-treated controls: significantly smaller; also recorded: smaller than controls
[9]; mouse, in vivo
  primary tumor growth and metastases: inhibited
  surgical examination of the tumor sites: no sign of tumor cells
[10]
  tumor volume compared with PBS-treated tumors: smaller than control PBS-treated tumors
[11]; human
  CC50 at 30 min: 4 µM
KS1767 cells [1]; 1 mM, in the presence of matrigel
  effect on KS1767 cells: remain unaffected
KS1767 cells [1]; 1 mM, in the presence of polymeric fibronectin (sFN)
  effect on KS1767 cell viability: ineffective; also recorded: remain unaffected
KS1767 cells [1]; 1 mM, without matrigel
  effect on KS1767 cells: decreases cell viability
KS1767 cells [1]; fibronectin alone (not polymeric), control
  SGP activity in the presence of fibronectin alone: did not prevent SGP activity

## DLSLARLATARLAI [negative control peptide, reference compound]
KS1767 cells [5]; 100 μM, 60 s
  effect on KS1767 cells: unaffected
KS1767 cells [5]; 100 μM, 24 h
  effect on KS1767 cells: unaffected
KS1767 cells [5]; 100 μM, after 60 min
  effect on KS1767 cells: unaffected

B1: SGP-L: SGP variant SEQ ID NO:4; central all alanine helix replaced by an all leucine helix; negative control (peptide)
chain: LLLLLLWLLLLGPNGLKLYKKLLKKLLKLLGNPGLKLYKKLLKKLLLKLGNPGLLKLYKKLLKKLLKLL
KS1767 cells [5]
  CC50: 60 µM
  toxicity to mammalian cultured cells compared with SGP: substantially less toxic
[12]
  CC50: 60 µM
[7]
  ability to disrupt synthetic membranes: diminished
[11]
  CC50: 60 µM

B2: SGP-E: SGP variant SEQ ID NO:3; lysines replaced by glutamic acids; negative control (peptide)
chain: AAAAAAWAAAAGNPGLELLKKLYKKLLELLGNPGLELLKKYLKKLLELLGNPGLLELLKKYLKKLLELL
KS1767 cells [5]
  CC50: 30 µM
  toxicity to mammalian cultured cells compared with SGP: substantially less toxic
[12]
  CC50: 30 µM
[7]
  ability to disrupt synthetic membranes: diminished
[11]
  CC50: 30 µM
